This note sets out measurements from patent publication US11116757B2 (priority 2015, dated 2021).

A value given as a limit tells only on which side of the number the result lay.

The first test deals with DCN1-UBC12 interaction (Homo sapiens (Human), UniProt Q96GG9). Nature of the test: biochemical. It counts as binding. To be noted: Table 4, commercial compounds; read-out: TR-FRET IC50. (In general: Time-resolved FRET reads energy transfer from a long-lived donor to a nearby acceptor.)
DCN1-UBC12 interaction, sequence (Q96GG9 60-248 limits assumed): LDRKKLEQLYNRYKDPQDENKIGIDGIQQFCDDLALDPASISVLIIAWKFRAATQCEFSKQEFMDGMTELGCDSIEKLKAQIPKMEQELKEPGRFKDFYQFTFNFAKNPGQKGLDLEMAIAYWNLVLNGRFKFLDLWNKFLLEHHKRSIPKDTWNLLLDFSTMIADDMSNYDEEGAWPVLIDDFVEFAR
As for `O=C(Nc1cccc(C(F)(F)F)c1)C1CCN(C(=O)Cc2ccccc2)CC1` [C12], the 50% inhibitory concentration (IC50) – broadly, the midpoint of a concentration-inhibition curve – is above 65.9 µM.
On the same count and under the same terms, then `COc1cccc(NC(=O)C2CCN(C(=O)c3cccc(F)c3)CC2)c1` [C43], with above 67.6 µM.
As for `CSc1cccc(NC(=O)C2CCN(C(=O)c3cnn(-c4ccccc4)c3-n3cccc3)CC2)c1` [C9], the concentration for half-maximal inhibition (IC50) is above 76.7 µM.
`COCC(=O)N1CCC(C(=O)Nc2ccc(-c3cc4ccccc4[nH]3)cc2)CC1` [C46]: the half-maximal inhibitory concentration (IC50) was above 67.6 µM.
On to `Cc1ccc(C(=O)N2CCC(C(=O)Nc3ccc(Cl)c(C(F)(F)F)c3)CC2)cc1` [C26], for which the IC50 was above 67.6 µM.

Still in this test, the particulars now being: Table 6, commercial compounds; read-out: TR-FRET IC50.
Consider `CSCCCNC(=O)c1cnn(-c2nccc(-c3cccs3)n2)c1C` [E51], for which the 50% inhibitory concentration (IC50) was above 67.6 µM.
On to `CCN(CC)CCN(CC)C(=O)c1cnn(-c2ncc3c(n2)-c2ccccc2CC3)c1C1CC1` [E9], for which the IC50 is 23.1 µM.
Take `CCN(CC)C(=O)c1cnn(-c2ncc(C)c(-c3cccs3)n2)c1C1CC1` [E26]: the IC50 stood at 65.2 µM.
In the case of `CCCN1CCN(C(=O)c2cnn(-c3nccc(-c4cccs4)n3)c2C2CC2)CC1` [E58], the IC50 is above 67.6 µM.
As to `CCCN1CCN(C(=O)c2cnn(-c3ncc(C)c(-c4cccs4)n3)c2COC)CC1` [E11], the IC50 was 26 µM.

The same test, now with this note: Table 7, commercial compounds; read-out: TR-FRET IC50.
With `Cc1cccc(C(=O)NC2C(=O)Nc3c(c(C)nn3-c3ccccc3)C2c2ccc(C#N)cc2)c1` (centres unmarked) [F5], the IC50 was 35.1 µM.
Consider `COc1cccc(C2c3c(C)nn(C)c3NC(=O)C2NC(=O)c2ccc(OC)c(OC)c2)c1` (centres unmarked) [F21], for which the IC50 is above 67.6 µM.
As to `CSc1ccc(C2c3c(C)nn(C)c3NC(=O)C2NC(=O)c2cccc(C)c2)cc1F` (centres unmarked) [F7], the IC50 turned out to be 41.5 µM.
Take `CCc1ccc(C2c3c(C)nn(C)c3NC(=O)C2NC(=O)c2ccc(OC)c(OC)c2)cc1` (centres unmarked) [F24]: the IC50 is above 67.6 µM.
Regarding `CCOc1ccc(C2c3c(C)nn(C)c3NC(=O)C2NC(=O)c2cccc(C)c2)cc1` (centres unmarked) [F23], the half-inhibitory concentration (IC50) is above 67.6 µM.
As to `CSc1ccc(C2c3c(C)nn(C)c3NC(=O)C2NC(=O)c2cccc(C)c2)cc1` (centres unmarked) [F6], the IC50 is 39.5 µM.

Still in this test, the particulars now being: read-out: TR-FRET IC50.
In the case of `Cc1cc(C)cc(C(=O)N2CCCC(c3nc4ccccc4s3)C2)c1` (centres unmarked) [D32], the half-maximal inhibitory concentration (IC50) is above 67.6 µM.
Regarding `CCCC(C)N1CCC(N(Cc2ccccc2)C(=O)Nc2ccc(NC(C)=O)cc2)CC1` (centres unmarked) [A291], the IC50 is above 77.1 µM.
On to `CCCN1CCC(NC(=O)Nc2ccc(Cl)cc2Cl)CC1` [B14], for which the half-inhibitory concentration (IC50) came to 43 µM.
Turning to `CCCC(C)N1CCC(N(Cc2ccccc2)C(=O)Nc2ccc(C)c([N+](=O)[O-])c2)CC1` (centres unmarked) [A36], the IC50 was found to be 0.206 µM.
With `CN1CCC(NC(=O)Nc2cccc(C(F)(F)F)c2)CC1` [B100], the concentration for half-maximal inhibition (IC50) was above 68.1 µM.
Take `COc1cccc(CN2CCC(N(Cc3ccccc3)C(=O)Nc3cc(F)cc(C(F)(F)F)c3)CC2)c1` [A231]: the IC50 was above 28.9 µM.
`O=C(NCc1cccc(C(F)(F)F)c1)C1CCN(Cc2ccccc2)CC1` [B41]: the IC50 is above 63.9 µM.
Turning to `CCCC(C)N1CCC(N(Cc2ccccc2)C(=O)Nc2cccc(OC)c2OC)CC1` (centres unmarked) [A250], the 50% inhibitory concentration (IC50) is above 59.8 µM.
As for `CCCC(C)N1CCC(N(Cc2ccccc2CNC(=O)CCl)C(=O)Nc2cccc(C(F)(F)F)c2)CC1` (centres unmarked) [drawing 848], the IC50 is 0.154 µM.
`CCCC(C)N1CCC(N(Cc2ccccc2)C(=O)Nc2ccccc2N2CCOCC2)CC1` (centres unmarked) [A243]: the IC50 was above 52.8 µM.
Same read-out and setting: to “1-Benzyl-1-(1-(Propylsulfonyl)Piperidin-4-yl)-3-(3-(Trifluoromethyl)Phenyl)Urea [A79]” belongs 0.81 µM.
Turning to `COc1ccccc1NC(=O)N(CCCN1CCC(C)CC1)C1CCN(C(C)=O)CC1` [B96], the 50% inhibitory concentration (IC50) is above 67.6 µM.
`CC1CN(Cc2ccccc2)CC(C)C1NC(=O)Nc1nccs1` (centres unmarked) [B9]: the IC50 came out at 18.6 µM.
For the molecule `CCCC(C)N1CCC(N(Cc2ccccc2)C(=O)Nc2ccc(Br)cc2C)CC1` (centres unmarked) [A165], the half-maximal inhibitory concentration (IC50) was 9.43 µM.
Turning to `CCCC(C)N1CCC(N(Cc2ccccc2NC(=O)CCl)C(=O)Nc2cccc(C(F)(F)F)c2)CC1` (centres unmarked) [A38], the IC50 was determined as 0.208 µM.
Same read-out and setting: then `CCCC(C)N1CCC(N(Cc2ccccc2)C(=O)Nc2cccc(C(=O)OC)c2)CC1` (centres unmarked) [A81], with 0.88 µM; and `C=CC(=O)NCCCN(C(=O)Nc1cccc(C(F)(F)F)c1)C1CCN(C(C)CCC)CC1` (centres unmarked) [A134], with 3.34 µM; and `Cc1cccc(C(=O)N2CCC(c3nc4ccccc4s3)CC2)c1` [D4], with 18 µM.
For `O=C(NCC(=O)N1CCC(c2nc3ccccc3s2)CC1)c1cccc(F)c1` [D23], the concentration for half-maximal inhibition (IC50) is above 67.6 µM.
In the case of `COc1cccc(NC(=O)NC2CCN(C(C)C)CC2)c1` [B60], the IC50 was above 67.6 µM.
On to `CC(=O)N1CCC(N(Cc2ccco2)C(=O)Nc2ccc(Br)c(C)c2)CC1` [B18], for which the half-maximal inhibitory concentration (IC50) is 64.1 µM.
With `CCCC(C)N1CCC(N(Cc2ccccc2)C(=O)Nc2cccc(SC)c2)CC1` (centres unmarked) [A44], the concentration for half-maximal inhibition (IC50) amounted to 0.254 µM.
Take `CCCC(C)N1CCC(N(Cc2ccccc2)C(=O)Nc2ccc3ccccc3c2)CC1` (centres unmarked) [A10]: the IC50 stood at 0.0789 µM.
As to `CCCC(C)N1CCC(N(Cc2ccccc2)C(=O)Nc2ccc(C(F)(F)F)cc2)CC1` (centres unmarked) [A41], the concentration for half-maximal inhibition (IC50) was found to be 0.237 µM.
Still for that read-out and setting: then `CCCC(C)N1CCC(N(Cc2ccccc2)C(=O)Nc2cccc(F)c2F)CC1` (centres unmarked) [A162], with 8.22 µM; and `CCCC(C)N1CCC(N(Cc2ccccc2)C(=O)Nc2ccc(Oc3ccncc3)cc2)CC1` (centres unmarked) [A69], with 0.567 µM; and `CC1CN(Cc2ccccc2)CCC1N(C)C(=O)Nc1cn[nH]c1` (centres unmarked) [B24], with above 15.2 µM.
For the molecule `CCCC(C)N1CCC(N(Cc2ccccc2)C(=O)Nc2cccc3cccnc23)CC1` (centres unmarked) [A139], the IC50 was 4.13 µM.
With `CCCC(C)N1CCC(N(Cc2ccccc2)C(=O)Nc2cc(Br)ccc2Cl)CC1` (centres unmarked) [A267], the 50% inhibitory concentration (IC50) was above 66.9 µM.
As to `O=C(Nc1cc(F)cc(C(F)(F)F)c1)N(Cc1ccccc1)C1CCN(Cc2cccc(N3CCCC3)c2)CC1` [A202], the IC50 is above 19.4 µM.
Turning to “1-Benzyl-1-(1-Hexylpiperidin-4-yl)-3-(3-(Trifluoromethyl)Phenyl)Urea [A289]”, the half-maximal inhibitory concentration (IC50) was above 73.2 µM.
The same measure, in the same setting: then `O=C(CN1CCN(Cc2ccccc2)CC1)Nc1cc(C(F)(F)F)ccc1Cl` [B113], with above 74 µM; and `COc1ccc(CN(C(=O)Nc2ccccc2C(F)(F)F)C2CCN(C(C)=O)CC2)cc1` [B85], with above 67.6 µM; and `CCCCN1CCC(C(Cc2ccccc2)C(=O)Nc2cccc(C(F)(F)F)c2)CC1` (centres unmarked) [A156], with 7.11 µM.
`CCc1ccccc1NC(=O)N(Cc1ccco1)C1CCN(C(C)=O)CC1` [B74]: the half-inhibitory concentration (IC50) is above 67.6 µM.
In the case of `CCOC(=O)c1ccccc1NC(=O)N(C(C)C)C1CCN(C(C)=O)CC1` [B66], the half-maximal inhibitory concentration (IC50) is above 67.6 µM.
As to `O=C(Nc1cccc(C(F)(F)F)c1)NC1CCN(C(=O)c2ccccc2)CC1` [A306, 1-(1-Benzoylpiperidin-4-yl)-3-(3-(Trifluoromethyl)Phenyl)Urea], the 50% inhibitory concentration (IC50) was above 98.1 µM.
On to `CCCC(C)N1CCC(N(Cc2ccccc2)C(=O)Nc2cccc(Cl)c2F)CC1` (centres unmarked) [A62], for which the 50% inhibitory concentration (IC50) worked out at 0.385 µM.
For the molecule `CCCC(C)N1CCC(N(Cc2ccccc2)C(=O)Nc2c(F)cc(F)cc2F)CC1` (centres unmarked) [A272], the half-inhibitory concentration (IC50) is above 67.5 µM.
Turning to `CCCC(C)N1CCC(N(Cc2ccccc2)C(=O)Nc2ccc(Oc3ccc(Cl)cc3)cc2)CC1` (centres unmarked) [A22], the concentration for half-maximal inhibition (IC50) worked out at 0.131 µM.
In the case of `COc1ccc(CN(C(=O)Nc2ccccc2Cl)C2CCN(C(C)=O)CC2)cc1` [B13], the concentration for half-maximal inhibition (IC50) was found to be 37.5 µM.
On to `CCCC(C)N1CCC(N(Cc2ccccc2)C(=O)Nc2cccc(O)c2)CC1` (centres unmarked) [A177], for which the IC50 worked out at 14.5 µM.
With `CCCC(C)N1CCC(N(Cc2ccccc2)C(=O)Nc2ccc(OC)cc2F)CC1` (centres unmarked) [A290], the 50% inhibitory concentration (IC50) was above 74 µM.
